# Reference: ChEMBL document CHEMBL1201862, “PubChem BioAssay data set” (2004)
# Activity calls are given as the source filed them.
# Tests used:
# BJ [1] = experiment: BJ-TERT fibroblast viability loss – cell-based, RAS-independent, luminescence, dose response (AID 1933); assay type: functional; details: Homo sapiens
# [2] = DRD fibroblast viability loss – cell-based, non-viral oncogenic, luminescence, dose response (AID 1934); assay type: functional; details: Homo sapiens
# BJ [3] = experiment: BJ-TERT-LT-ST fibroblast viability loss – cell-based, RAS-independent, luminescence, dose response (AID 1935); assay type: functional; details: Homo sapiens;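 further: BJ fibroblasts immortalized with TERT plus LT and ST oncogenes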
# Cytochrome P450 2C19 = Cytochrome P450 2C19 (Homo sapiens, UniProt P33261); experiment: Cytochrome panel assay with activity outcomes. Panel member name: p450-cyp2c19 Compounds with AC50 equal or less than 10 uM are considered active; assay type: functional; details: read-out: AC50
# BJ [4] = experiment: cells; assay type: functional, cell-based, Homo sapiens; details: Homo sapiens, BJ
# INS1 = experiment: INS-1E survival protection against cytokine death – cell-based, luminescence, retest, dose response (AID 449756); assay type: functional; details: Rattus norvegicus;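 further: cell death triggered by IL-1 beta plus TNF-alpha plus IFN-gamma mixture; protective hits raise ATP signal compared with cytokine alone wells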
# Cytochrome P450 3A4 = Cytochrome P450 3A4 (Homo sapiens, UniProt P08684); details: Potency;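 further: confirmatory qHTS run detecting inhibitors and substrates of CYP3A4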
# [5] = target: T1, DNA repair and recombination protein RAD54-like (Homo sapiens, UniProt Q92698); experiment: RAD54 Holliday junction migration blockers – biochemical, fluorescence, cherry-picked samples, dose series, confirmation (AID 651657); assay type: functional
# T1 sequence (Q92698 whole entry): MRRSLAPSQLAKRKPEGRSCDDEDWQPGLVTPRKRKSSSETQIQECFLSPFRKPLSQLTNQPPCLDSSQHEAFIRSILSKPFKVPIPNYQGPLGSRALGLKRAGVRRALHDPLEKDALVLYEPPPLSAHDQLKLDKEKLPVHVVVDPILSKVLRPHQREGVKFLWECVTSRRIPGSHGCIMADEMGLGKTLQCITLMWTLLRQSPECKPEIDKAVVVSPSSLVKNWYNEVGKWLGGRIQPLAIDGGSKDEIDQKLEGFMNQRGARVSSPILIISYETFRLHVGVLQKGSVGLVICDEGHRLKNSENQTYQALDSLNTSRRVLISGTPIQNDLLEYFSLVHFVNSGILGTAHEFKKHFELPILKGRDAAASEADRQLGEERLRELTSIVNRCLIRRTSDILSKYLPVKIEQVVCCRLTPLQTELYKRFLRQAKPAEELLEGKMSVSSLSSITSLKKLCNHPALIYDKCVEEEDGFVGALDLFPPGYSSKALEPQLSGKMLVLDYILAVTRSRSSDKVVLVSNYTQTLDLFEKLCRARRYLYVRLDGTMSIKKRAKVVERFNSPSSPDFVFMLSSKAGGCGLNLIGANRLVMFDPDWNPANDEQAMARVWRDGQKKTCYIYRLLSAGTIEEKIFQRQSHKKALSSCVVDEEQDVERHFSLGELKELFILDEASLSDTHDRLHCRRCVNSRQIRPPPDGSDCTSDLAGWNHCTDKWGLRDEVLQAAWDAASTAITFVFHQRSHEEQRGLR
# [6] = target: T2, Short transient receptor potential channel 4 (Mus musculus, UniProt Q9QUQ5); experiment: block of DAMGO-driven TRPC4 calcium entry – cell-based, HEK293 TRPC4/mu-opioid, Fluo-4 calcium, dose response (AID 434942); assay type: functional;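 further: potency of inhibitors blocking the TRPC4 calcium response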
# T2 sequence (Q9QUQ5 whole entry): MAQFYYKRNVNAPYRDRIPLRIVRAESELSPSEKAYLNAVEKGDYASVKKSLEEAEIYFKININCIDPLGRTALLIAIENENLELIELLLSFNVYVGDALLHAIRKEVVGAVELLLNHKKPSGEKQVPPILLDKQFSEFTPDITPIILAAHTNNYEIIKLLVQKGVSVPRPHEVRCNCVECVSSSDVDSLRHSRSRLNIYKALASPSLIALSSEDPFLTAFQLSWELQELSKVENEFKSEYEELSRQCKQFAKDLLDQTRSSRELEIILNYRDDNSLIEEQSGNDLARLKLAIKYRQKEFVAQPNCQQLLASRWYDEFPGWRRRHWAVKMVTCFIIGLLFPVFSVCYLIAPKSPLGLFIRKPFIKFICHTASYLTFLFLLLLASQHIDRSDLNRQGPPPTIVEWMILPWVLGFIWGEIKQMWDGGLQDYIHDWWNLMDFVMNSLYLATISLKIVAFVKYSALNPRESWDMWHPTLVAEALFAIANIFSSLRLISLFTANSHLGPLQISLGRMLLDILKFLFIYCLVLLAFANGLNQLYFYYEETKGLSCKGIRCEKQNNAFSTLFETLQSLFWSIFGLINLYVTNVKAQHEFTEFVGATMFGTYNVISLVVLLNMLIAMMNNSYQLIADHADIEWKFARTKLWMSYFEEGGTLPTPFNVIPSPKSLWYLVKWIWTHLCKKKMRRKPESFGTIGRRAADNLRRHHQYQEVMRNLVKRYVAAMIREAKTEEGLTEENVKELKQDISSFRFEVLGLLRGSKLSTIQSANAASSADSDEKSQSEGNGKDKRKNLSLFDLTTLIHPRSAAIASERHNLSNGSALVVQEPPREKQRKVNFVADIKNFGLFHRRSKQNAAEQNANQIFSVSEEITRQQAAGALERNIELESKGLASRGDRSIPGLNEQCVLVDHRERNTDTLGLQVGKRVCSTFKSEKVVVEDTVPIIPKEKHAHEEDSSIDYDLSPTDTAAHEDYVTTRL
# [7] = target: T2, Short transient receptor potential channel 4; experiment: calcium entry via TRPC4 opening agents – cell-based, HEK293 TRPC4/mu-opioid, Fluo-4 calcium, dose response (AID 434937); assay type: functional
# [8] = luciferase reporter signal suppression in cells – H4 neuroglioma cells, luminescence, dose response (AID 1990); assay type: functional, cell-based
# [9] = alpha-synuclein stem-loop luciferase translation blockers – H4 neuroglioma cells, luminescence, confirmation (AID 1988); assay type: functional, cell-based
# [10] = Luminescence Cell-Based Dose Response HTS to Identify Inhibitors of 5'UTR Stem-Loop Driven Prion Protein mRNA Translation in H4 Neuroglioblastoma Cells. [Related pubchem assays: 1827 (Project Summary), 1813 (Primary HTS)]; assay type: functional
# [11] = target: T3, Replicative DNA helicase DnaB (Mycobacterium tuberculosis, UniProt P9WMR3); experiment: DnaB intein splicing inhibitors, dose response, biochemical, cell-free fluorescence (AID 449749); assay type: functional
# T3 sequence (P9WMR3 whole entry): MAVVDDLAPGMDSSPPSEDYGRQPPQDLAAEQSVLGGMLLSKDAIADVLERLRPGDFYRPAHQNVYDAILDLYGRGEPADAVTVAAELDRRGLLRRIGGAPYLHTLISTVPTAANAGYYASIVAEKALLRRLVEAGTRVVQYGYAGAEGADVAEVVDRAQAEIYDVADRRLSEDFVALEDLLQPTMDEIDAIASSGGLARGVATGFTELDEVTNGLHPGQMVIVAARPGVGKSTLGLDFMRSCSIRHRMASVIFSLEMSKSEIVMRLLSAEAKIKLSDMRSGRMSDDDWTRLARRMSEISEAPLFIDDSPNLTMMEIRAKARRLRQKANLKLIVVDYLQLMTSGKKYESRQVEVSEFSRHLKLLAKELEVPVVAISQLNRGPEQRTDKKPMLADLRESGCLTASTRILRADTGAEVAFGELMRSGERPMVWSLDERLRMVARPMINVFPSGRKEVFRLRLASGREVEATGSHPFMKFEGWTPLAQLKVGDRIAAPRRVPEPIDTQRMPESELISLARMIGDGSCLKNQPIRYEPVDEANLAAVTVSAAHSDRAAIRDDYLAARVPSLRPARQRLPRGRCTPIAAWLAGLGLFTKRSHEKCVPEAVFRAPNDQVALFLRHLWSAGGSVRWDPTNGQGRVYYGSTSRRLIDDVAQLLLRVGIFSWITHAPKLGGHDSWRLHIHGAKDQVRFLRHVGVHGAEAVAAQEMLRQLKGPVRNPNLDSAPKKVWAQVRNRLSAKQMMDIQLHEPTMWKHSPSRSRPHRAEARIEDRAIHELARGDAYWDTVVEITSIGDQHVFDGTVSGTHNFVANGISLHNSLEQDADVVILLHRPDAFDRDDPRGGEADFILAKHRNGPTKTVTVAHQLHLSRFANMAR
# Protein RecA = target: T4, Protein RecA (Mycobacterium tuberculosis, UniProt P9WHJ3); experiment: Fluorescence Cell-Free Homogeneous Dose Retest to Identify Inhibitors of RecA-Intein Splicing Activity. [Related pubchem assays (depositor defined):AID2097, AID2223, AID489010, AID492950]; assay type: functional
# T4 sequence (P9WHJ3 whole entry): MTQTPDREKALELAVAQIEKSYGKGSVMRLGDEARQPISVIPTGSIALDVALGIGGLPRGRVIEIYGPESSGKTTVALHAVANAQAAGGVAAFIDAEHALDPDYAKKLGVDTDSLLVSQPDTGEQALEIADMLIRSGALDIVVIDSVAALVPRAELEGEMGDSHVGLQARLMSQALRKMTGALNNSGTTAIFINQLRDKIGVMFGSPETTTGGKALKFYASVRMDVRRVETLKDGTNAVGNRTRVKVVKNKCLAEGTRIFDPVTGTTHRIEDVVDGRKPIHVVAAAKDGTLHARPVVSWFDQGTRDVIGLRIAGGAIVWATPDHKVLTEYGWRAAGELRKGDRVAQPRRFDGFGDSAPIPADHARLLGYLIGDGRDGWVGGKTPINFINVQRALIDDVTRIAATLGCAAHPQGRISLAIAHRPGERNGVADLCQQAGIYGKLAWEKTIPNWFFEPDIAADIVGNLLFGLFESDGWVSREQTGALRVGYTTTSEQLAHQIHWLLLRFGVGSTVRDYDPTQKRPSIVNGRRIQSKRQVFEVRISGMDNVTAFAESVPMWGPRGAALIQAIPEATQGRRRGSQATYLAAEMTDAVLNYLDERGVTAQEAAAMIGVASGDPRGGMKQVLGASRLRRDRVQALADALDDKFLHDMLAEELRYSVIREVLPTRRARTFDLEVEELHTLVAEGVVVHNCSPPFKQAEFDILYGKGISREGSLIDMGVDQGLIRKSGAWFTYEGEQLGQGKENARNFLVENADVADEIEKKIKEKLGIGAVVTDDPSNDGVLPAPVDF
# [12] = intracellular Trypanosoma cruzi inhibitors in host cells – cell-based, plate reader, cherry-pick samples, set 3, dose response (AID 651818); assay type: functional;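 further: compounds incubated with infected cells for about four days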
# [13] = blockers of HIV-1 ZM109 envelope-driven cell-cell fusion – HeLa effector, CEM target cells, luciferase, cherry-pick, dose response (AID 652058); assay type: functional, cell-based;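 further: luciferase signal from HIV-1 Env mediated cell-cell fusion of effector and target cells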
# Sequence of Cytochrome P450 3A4 (P08684 whole entry): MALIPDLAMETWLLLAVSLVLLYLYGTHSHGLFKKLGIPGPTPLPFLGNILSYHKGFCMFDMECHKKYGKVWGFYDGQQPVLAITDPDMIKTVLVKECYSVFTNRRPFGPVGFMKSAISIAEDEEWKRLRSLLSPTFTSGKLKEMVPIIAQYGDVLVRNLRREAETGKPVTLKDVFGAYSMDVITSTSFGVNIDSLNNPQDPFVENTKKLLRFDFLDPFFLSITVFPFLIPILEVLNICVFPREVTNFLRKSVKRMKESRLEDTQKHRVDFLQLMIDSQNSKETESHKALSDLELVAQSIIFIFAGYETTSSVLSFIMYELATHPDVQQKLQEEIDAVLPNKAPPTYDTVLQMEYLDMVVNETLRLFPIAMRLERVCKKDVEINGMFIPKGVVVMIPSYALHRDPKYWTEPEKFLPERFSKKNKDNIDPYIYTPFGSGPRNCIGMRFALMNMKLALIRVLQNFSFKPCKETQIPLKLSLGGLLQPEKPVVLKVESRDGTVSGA
# Sequence of Cytochrome P450 2C19 (P33261 whole entry): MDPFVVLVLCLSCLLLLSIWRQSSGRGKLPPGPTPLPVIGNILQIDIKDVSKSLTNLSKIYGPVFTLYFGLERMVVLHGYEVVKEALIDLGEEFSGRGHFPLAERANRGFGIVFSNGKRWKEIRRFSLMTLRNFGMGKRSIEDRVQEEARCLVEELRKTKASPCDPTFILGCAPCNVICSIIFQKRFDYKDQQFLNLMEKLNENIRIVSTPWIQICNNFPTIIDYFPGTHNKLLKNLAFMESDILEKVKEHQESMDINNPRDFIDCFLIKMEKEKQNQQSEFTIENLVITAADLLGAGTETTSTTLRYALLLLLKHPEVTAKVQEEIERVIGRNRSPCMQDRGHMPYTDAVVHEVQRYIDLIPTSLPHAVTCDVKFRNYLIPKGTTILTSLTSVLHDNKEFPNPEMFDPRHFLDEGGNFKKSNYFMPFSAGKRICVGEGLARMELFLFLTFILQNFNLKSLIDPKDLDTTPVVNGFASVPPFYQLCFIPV
smiles,measurement,setting,value
COc1ccc(-c2nc(-c3cccc(C)c3)nc(N3CCN(C)CC3)c2C#N)cc1,EC50,BJ [1],16.5 µM (inconclusive)
same,EC50,[2],14.8 µM (inconclusive)
same,EC50,BJ [3],> 150 µM (not active)
same,AC50,Cytochrome P450 2C19,20 µM (inconclusive)
same,EC50,BJ [4],23.3 µM (active)
FC(F)(F)c1ccc(CN2C[C@@H]3C(c4ccc(C(F)(F)F)cc4)C4(c5cccnc5)CC3(C4)[C@H]2c2ccccc2)cc1 (stereo not given in full),AC50,INS1,6.2 µM (active)
same,AC50,Cytochrome P450 3A4,31.6 µM (inconclusive)
CC(=O)OCC1OC(Oc2cc(OC(C)=O)c3c(=O)cc(-c4ccc(OC(C)=O)cc4)oc3c2)[C@@H](OC(C)=O)C(OC(C)=O)C1OC(C)=O (stereo not given in full),AC50,Cytochrome P450 3A4,10 µM (inconclusive)
Cc1cc(Nc2ccc3c(c2)OCCO3)c2cccc(C)c2n1,AC50,[5],13.9 µM (active)
CCOC(=O)C1(CC2CC2)CCN(Cc2c[nH]nc2-c2ccccc2)CC1,EC50,[6],0.944 µM (active)
same,EC50,[7],1.33 µM (active)
CCCCNc1nc(C)nc2c1nc(-c1ccccc1)n2CC1CCN(C)CC1,AC50,Cytochrome P450 3A4,15.8 µM (inconclusive)
Nc1cc(N2CCCCC2)c([N+](=O)[O-])cc1Cl,EC50,[6],5.31 µM (active)
Cc1ccn2c(CNCCCn3cccn3)c(C(=O)N3CCCCCC3)nc2c1,EC50,[6],2.11 µM (active)
COc1ccc(C(=O)CN2CCN(CCN3C(=O)c4cccc5cccc(c45)C3=O)CC2)cc1,EC50,[8],13.4 µM (active)
same,AC50,[5],8.03 µM (active)
same,EC50,[9],15.3 µM (active)
same,EC50,[10],> 120 µM (not active)
Cc1cccc(CN2CCCC(C(=O)Nc3ccccc3Oc3cccnc3)C2)c1 (stereo not given),EC50,[6],4.22 µM (active)
CC1(C)C(O)C=C[C@@]2(C)C1CC(=O)O[C@@]1(C)C3=CC(=O)OC(c4ccoc4)[C@]3(C)CCC21 (stereo not given in full),AC50,Cytochrome P450 3A4,2 µM (inconclusive)
Cc1nc2ccccc2c2oc(C(=O)NCCN3CCN(C)CC3)cc12,AC50,[5],39.9 µM (active)
COC(=O)C/N=C1/OC(=O)N2C(=O)C3=C4[C@@H](C[C@H]5C(=O)N(c6ccccc6)C(=O)[C@H]5[C@H]4[C@@]12Cc1ccccc1)[C@H]1C(=O)N(c2ccccc2)C(=O)[C@H]1[C@H]3C,AC50,Cytochrome P450 3A4,6.31 µM (inconclusive)
CCCn1c(-c2ccc(F)cc2)nc2c(NCCCN(CCO)CCO)nc(C)nc21,AC50,Cytochrome P450 3A4,15.8 µM (inconclusive)
Cc1nn(C(=O)CNS(=O)(=O)c2ccccc2)c(C)c1Sc1ccc(Cl)cc1,EC50,[6],1.33 µM (active)
same,AC50,[11],4.2 µM (active)
same,EC50,Protein RecA,17.2 µM (active)
Cc1ccc(N(CC(=O)NC2CCCC2)C(=O)CNC(=O)c2cccs2)cc1F,EC50,[6],5.96 µM (active)
CCN(CC)CCN=C(S)Nc1ccc2nc(N3CCN(CC)CC3)cc(C)c2c1,AC50,[5],15.3 µM (active)
CCCCCN1C2=NCCN2c2ccccc21,EC50,[6],0.841 µM (active)
C[C@@H]1CN([C@H](C)CO)C(=O)c2cccc(NC(=O)CCCCCC(=O)Nc3ccccc3N)c2O[C@H]1CN(C)Cc1ccc(-c2ccccc2)cc1,AC50,[12],2.18 µM (active)
C[C@@H]1CN([C@@H](C)CO)C(=O)c2cc(NS(=O)(=O)c3ccccc3)ccc2O[C@H]1CN(C)Cc1ccc(C(=O)Nc2ccccc2N)cc1,AC50,[12],4.83 µM (active)
Cc1ccc(S(=O)(=O)Nc2ccc3c(c2)CC(=O)N([C@H](C)CO)C[C@@H](C)[C@@H](CN(C)S(=O)(=O)c2ccccc2)O3)cc1,AC50,[12],2.27 µM (active)
C[C@@H]1CN([C@H](C)CO)C(=O)c2cccc(NC(=O)C3CCCCC3)c2O[C@H]1CN(C)Cc1ccc(C(F)(F)F)cc1,AC50,[12],2.83 µM (active)
COc1cccc(S(=O)(=O)N[C@@H]2CC[C@H](CCN)O[C@H]2CO)c1,AC50,[13],1.26 µM (active)
CCCc1nc(C(C)(C)O)c(C(=O)OCc2oc(=O)oc2C)n1Cc1ccc(-c2ccccc2-c2nnn[nH]2)cc1 [OLMESARTAN MEDOXOMIL],AC50,Cytochrome P450 3A4,25.1 µM (inconclusive)
